Experimental data published in US20250195684A1, “DELIVERY METHODS USING PLATELETS” (Children's Hospital Medical Center, priority 2022, published 2025).

How the values were obtained:
human iPSC line 1383D6 = test: Effect of cytochalasin B on platelet-based mCherry mRNA delivery; assay type: cell-based; details: 100 nM or 350 nM
Protocol: The effects of cytochalasin B (CytoB), which is an inhibitor of tunneling nanotubes, on platelet-based mRNA delivery were investigated in the exemplary human iPSC line 1383D6. The cells were plated at a density of 2×10^5 cells/well in a 12 well plate and grown overnight at 37° C. with 5% CO2. Platelets were loaded with 5 μg of mCherry mRNA using Lipofectamine MessengerMax as described herein. The mRNA loaded platelets were further prepared by centrifuging at 1800×g at room temperature for 10 min, washing with EBM, and resuspending in fresh 600 μL culture media. Then, 100 μL of the mRNA loaded platelets (corresponding to 0.8 μg mRNA/well) containing 100 nM or 350 nM CytoB (or without CytoB as control) was added to the cells in a total volume of 1 mL culture media. After 24 hour incubation at 37° C. with 5% CO2, fluorescent images were obtained with a BZ-X810 fluorescence microscope (Keyence) using a TRITC filter. Subsequently, the cells were harvested using 0.25% trypsin-EDTA solution, washed twice with PBS, and centrifuged. The cell pellet was dispersed using PBS containing 3% FBS, stained with LIVE/DEAD Fixable Green Dead Cell Stain Kit (Thermo Fisher Scientific) according to manufacturer's instructions. […] Relative value in mean fluorescence intensity (MFI) was calculated with respect to the control samples without CytoB.

HUVECs = test: Co-culture of MEG-01-GFP megakaryocyte-derived GFP-positive platelets with HUVECs (protein delivery); assay type: cell-based, human; details: 80 μM concentration
Protocol: In addition to nucleic acids such as mRNA, modified platelets were used to deliver protein. MEG-01 megakaryocytes were transduced with pLV-GFP lentivirus to induce expression of GFP (MEG-01-GFP). These megakaryocytes were cultured to produce GFP-positive platelets (FIG. 4A), which were co-cultured with HUVECs.
In a separate experiment, GFP-positive platelets were co-cultured with mCherry-expressing HUVECs.

293T cells = test: Screening of anchoring protein HA fusion constructs, PE anti-HA flow cytometry; assay type: cell-based; details: live cells, gated on eGFP
Description: FIG. 15A depicts exemplary constructs used for the determination and identification of cell surface targeting ligands, which can be, for example, expressed on platelets to increase cell type specificity. The exemplary constructs involve custom TetOn expression vectors with left/right homologue arms to AAVS1. TetOn allows for conditional expression of targeting ligands or epitopes fused to the N- and C-termini of platelet cell surface markers (e.g. CD41, CD42a, CD61). Downstream cGFP through a P2A linker allows for successful identification of cells expressing the fusion vector. FIG. 15B depicts flow cytometry plots of 293T cells transfected with the exemplary N- or C-terminal fusion vectors depicted in FIG. 15A using CD41, CD42a, and CD61. Live cells were stained with a PE anti-HA fluorescent antibody and gated upon cGFP expression during flow cytometry analysis. PE fluorescence is shown against control (untransfected) 293T cells stained with PE anti-HA (shaded).

## C=C1[C@@H](C)[C@H]2[C@H](Cc3ccccc3)NC(=O)[C@]23OC(=O)/C=C/[C@H](O)CCC[C@@H](C)C/C=C/[C@H]3[C@@H]1O [CytoB, cytochalasin B]
Human iPSC line 1383D6
  effect on platelet-based mRNA delivery: Prevents Platelet-Based mRNA Delivery
Human iPSC line 1383D6; 24 hour
  cell death (MFI of green dead cell stain): does not cause cell death

## O=C(N/N=C/c1ccc(O)c(O)c1)c1cc2ccccc2cc1O [dynasore]
HUVECs
  transformation of HUVECs by platelets treated with inhibitor: unable to transform HUVECs

## C-terminal fusion of CD61 with an HA epitope: TetOn expression construct of platelet surface marker CD61 fused C-terminally to an HA epitope, with P2A eGFP
293T cells
  exposure of HA epitope on cell surface: robust exposure of the HA epitope on the 293T cell surface
293T cells; listed as C-terminal CD61-HA fusion construct
  exposure of HA epitope on cell surface: results in anti-HA fluorescence on the cell surface
